This note sets out measurements from ChEMBL document CHEMBL2074268, “Cloning of mouse prostaglandin transporter PGT cDNA: species-specific substrate affinities” (Am J Physiol, 1999).

What all share (type): functional, cell-based
The target of assay [1] is Solute carrier organic anion transporter family member 2A1 (Rattus norvegicus, UniProt Q00910). Kind of assay: (§1) TP_TRANSPORTER: inhibition of PGE2 uptake in PGT-expressing HeLa cells.
Assay [2] has as its target Solute carrier organic anion transporter family member 2A1 (Mus musculus, UniProt Q9EPT5). The assay is described as §1.
Assay [3] has as its target Solute carrier organic anion transporter family member 2A1 (Homo sapiens, UniProt Q92959). Described as §1.

Structures are written as SMILES.

Chain of Solute carrier organic anion transporter family member 2A1 (Mus musculus, UniProt Q9EPT5) (Q9EPT5 whole entry): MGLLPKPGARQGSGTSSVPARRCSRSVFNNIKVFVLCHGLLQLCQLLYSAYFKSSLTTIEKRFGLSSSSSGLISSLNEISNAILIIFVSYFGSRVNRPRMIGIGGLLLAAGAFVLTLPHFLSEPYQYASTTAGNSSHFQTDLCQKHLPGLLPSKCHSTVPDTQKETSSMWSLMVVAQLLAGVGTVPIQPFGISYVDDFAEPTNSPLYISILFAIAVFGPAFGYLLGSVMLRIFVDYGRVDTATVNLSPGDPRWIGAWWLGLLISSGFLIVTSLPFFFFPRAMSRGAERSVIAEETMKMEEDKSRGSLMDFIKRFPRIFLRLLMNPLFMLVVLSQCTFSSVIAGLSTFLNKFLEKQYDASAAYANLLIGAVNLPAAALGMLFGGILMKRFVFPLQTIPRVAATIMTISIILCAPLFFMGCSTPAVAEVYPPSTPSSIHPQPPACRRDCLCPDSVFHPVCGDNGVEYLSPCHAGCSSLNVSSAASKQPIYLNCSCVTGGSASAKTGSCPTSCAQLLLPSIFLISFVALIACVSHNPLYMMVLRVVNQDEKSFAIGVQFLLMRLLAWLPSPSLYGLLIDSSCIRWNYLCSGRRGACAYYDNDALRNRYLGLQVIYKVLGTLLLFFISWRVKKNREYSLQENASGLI

For the molecule `CCCCC[C@H](O)/C=C/[C@@H]1[C@@H](C/C=C\CCCC(=O)O)[C@@H](O)C[C@H]1O` [DINOPROST], the Ki in assay [1] came out at 45 nM; in assay [2] it was 104 nM; in assay [3], 23 nM.

Take `CCCCC[C@H](O)/C=C/[C@H]1C(=O)C[C@H](O)[C@@H]1C/C=C\CCCC(=O)O` [PROSTAGLANDIN D2]: the Ki worked out at 45 nM in assay [1], 98 nM in assay [2] and 38 nM in assay [3].
